Some results are limits rather than exact numbers.

Data set [1] addresses JAK3 (recombinant human kinase domain) (Homo sapiens, UniProt P52333). Nature of the data set: Determination of IC50 of Janus Kinase (JAK) inhibition, radioactive end-point 33P-ATP assay, JAK3. Type of data set: biochemical. As to conditions: ATP 1.5 uM, peptide 50 uM, 20 minutes, room temperature, read-out: IC50 h-jak3-sf21-c. An excerpt:
Determination of IC50 of Janus Kinase (JAK) Inhibition: […]

Sequence of JAK3 (recombinant human kinase domain) (P52333 822-1111 limits assumed): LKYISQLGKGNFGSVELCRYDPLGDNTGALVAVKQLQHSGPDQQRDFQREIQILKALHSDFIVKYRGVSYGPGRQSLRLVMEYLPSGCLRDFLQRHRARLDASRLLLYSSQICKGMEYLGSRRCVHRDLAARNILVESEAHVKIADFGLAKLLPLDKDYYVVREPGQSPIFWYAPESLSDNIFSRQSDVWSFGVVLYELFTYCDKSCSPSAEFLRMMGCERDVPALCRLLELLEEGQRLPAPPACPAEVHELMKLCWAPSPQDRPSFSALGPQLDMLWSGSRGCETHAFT

As to `CCc1cccc(-c2cnc3[nH]cc(C(=O)C(C)(C)C)c3n2)c1` [Example 9, 1-[2-(3-Ethyl-phenyl)-5H-pyrrolo[2,3-b]pyrazin-7-yl]-2,2-dimethyl-propan-1-one], the melting point lay within 199 to 200.1 °C. On the same count and under the same terms, the same measure for `CN1C(=O)COc2ccc(-c3cnc4[nH]cc(C(=O)C(C)(C)C)c4n3)cc21` [Compound I-10, 6-[7-(2,2-Dimethyl-propionyl)-5H-pyrrolo[2,3-b]pyrazin-2-yl]-4-methyl-4H-benzo[1,4]oxazin-3-one]: 277 to 278 °C. For the compound `CC(C)(C)C(=O)c1c[nH]c2ncc(-c3ccc4c(c3)SCC(=O)N4)nc12` [Compound I-22, 7-[7-(2,2-Dimethyl-propionyl)-5H-pyrrolo[2,3-b]pyrazin-2-yl]-4H-benzo[1,4]thiazin-3-one], the melting point was > 300 °C. Consider `CN1CC=C(c2c[nH]c3ccc(-c4cnc5[nH]cc(C(=O)C(C)(C)C)c5n4)cc23)CC1` [Compound I-50, 2,2-Dimethyl-1-{2-[3-(1-methyl-1,2,3,6-tetrahydro-pyridin-4-yl)-1H-indol-5-yl]-5H-pyrrolo[2,3-b]pyrazin-7-yl}-propan-1-one], for which the melting point fell in the range of 263 to 265 °C. In addition, the IC50 in data set [1] came out at 155 nM.

In turn, `CC(C)(C)C(=O)c1c[nH]c2ncc(-c3ccc4c(ccn4Cc4ccncc4)c3)nc12` [Compound I-49, 2,2-Dimethyl-1-[2-(1-pyridin-4-ylmethyl-1H-indol-5-yl)-5H-pyrrolo[2,3-b]pyrazin-7-yl]-propan-1-one] came in with a melting point of 241 to 243 °C. Besides, in data set [1], the IC50 is 152 nM. Take `CC1(C(=O)c2c[nH]c3ncc(-c4ccc5[nH]ccc5c4)nc23)CCCCC1` [Compound I-52, [2-(1H-Indol-5-yl)-5H-pyrrolo[2,3-b]pyrazin-7-yl]-(1-methyl-cyclohexyl)-methanone]: the half-inhibitory concentration (IC50) in data set [1] came to 32.4 nM. Regarding `CC(C)(C)C(=O)c1c[nH]c2ncc(-c3ccc4c(ccn4Cc4cccnc4)c3)nc12` [Compound I-48, 2,2-Dimethyl-1-[2-(1-pyridin-3-ylmethyl-1H-indol-5-yl)-5H-pyrrolo[2,3-b]pyrazin-7-yl]-propan-1-one], the melting point was in the range of 170 to 171 °C. Consider `CN(c1cc(-c2cnc3[nH]cc(C(=O)C(C)(C)C)c3n2)cc2[nH]ccc12)S(=O)(=O)c1ccc(N)cc1` [Compound I-54, 4-Amino-N-{6-[7-(2,2-dimethyl-propionyl)-5H-pyrrolo[2,3-b]pyrazin-2-yl]-1H-indol-4-yl}-N-methyl-benzenesulfonamide], for which the IC50 in data set [1] amounted to 158 nM.

Consider `CN1CCOc2cc(-c3cnc4[nH]cc(C(=O)C5(C)CCCCC5)c4n3)ccc21` [Compound I-39, (1-Methyl-cyclohexyl)-[2-(4-methyl-3,4-dihydro-2H-benzo[1,4]oxazin-7-yl)-5H-pyrrolo[2,3-b]pyrazin-7-yl]-methanone], for which the melting point lay in the range of 243 to 244 °C. As for `CC(C)(C)C(=O)c1c[nH]c2ncc(-c3ccc4c(ccn4Cc4ccccn4)c3)nc12` [Compound I-46, 2,2-Dimethyl-1-[2-(1-pyridin-2-ylmethyl-1H-indol-5-yl)-5H-pyrrolo[2,3-b]pyrazin-7-yl]-propan-1-one], the melting point lay within 194 to 196 °C.

As to `CC(C)(C)C(=O)c1c[nH]c2ncc(-c3cc(NS(=O)(=O)c4ccccc4)c4cc[nH]c4c3)nc12` [Compound I-27, N-{6-[7-(2,2-Dimethyl-propionyl)-5H-pyrrolo[2,3-b]pyrazin-2-yl]-1H-indol-4-yl}-benzenesulfonamide], the melting point was 275 to 285 °C. With `CC1(C(=O)c2c[nH]c3ncc(-c4ccc5c(c4)NC(=O)C(C)(C)O5)nc23)CCCCC1` [Compound I-21, 2,2-Dimethyl-6-[7-(1-methyl-cyclohexanecarbonyl)-5H-pyrrolo[2,3-b]pyrazin-2-yl]-4H-benzo[1,4]oxazin-3-one], the melting point is > 300 °C.

As to `CC(C)(C)C(=O)c1c[nH]c2ncc(-c3cc(NS(=O)(=O)c4cccnc4)c4cc[nH]c4c3)nc12` [Compound I-37, Pyridine-3-sulfonic acid {6-[7-(2,2-dimethyl-propionyl)-5H-pyrrolo[2,3-b]pyrazin-2-yl]-1H-indol-4-yl}-amide], the melting point lay in the range of 305 to 307 °C. `CC(C)(C)C(=O)c1c[nH]c2ncc(-c3cc(NS(=O)(=O)c4ccc(Cl)cc4)c4cc[nH]c4c3)nc12` [Compound I-33, 4-Chloro-N-{6-[7-(2,2-dimethyl-propionyl)-5H-pyrrolo[2,3-b]pyrazin-2-yl]-1H-indol-4-yl}-benzenesulfonamide] gave a melting point of 264 to 266 °C. Still for that read-out and setting: the same measure for `CN1CCOc2ccc(-c3cnc4[nH]cc(C(=O)C(C)(C)C)c4n3)cc21` [Compound I-8, 2,2-Dimethyl-1-[2-(4-methyl-3,4-dihydro-2H-benzo[1,4]oxazin-6-yl)-5H-pyrrolo[2,3-b]pyrazin-7-yl]-propan-1-one]: 255 to 265 °C; for `CN1CCOc2cc(-c3cnc4[nH]cc(C(=O)C(C)(C)C)c4n3)ccc21` [Compound I-3, 2,2-Dimethyl-1-[2-(4-methyl-3,4-dihydro-2H-benzo[1,4]oxazin-7-yl)-5H-pyrrolo[2,3-b]pyrazin-7-yl]-propan-1-one]: 233 to 234 °C.

With `CC(C)(C)C(=O)c1c[nH]c2ncc(-c3ccc4c(c3)NC(=O)C(C)(C)O4)nc12` [Compound I-7, 6-[7-(2,2-Dimethyl-propionyl)-5H-pyrrolo[2,3-b]pyrazin-2-yl]-2,2-dimethyl-4H-benzo[1,4]oxazin-3-one], the melting point is > 300 °C. On the same count and under the same terms, the same measure for `CC(C)(C)C(=O)c1c[nH]c2ncc(-c3cc(NS(=O)(=O)c4ccc(N)cc4)c4cc[nH]c4c3)nc12` [Compound I-19, 4-Amino-N-{6-[7-(2,2-dimethyl-propionyl)-5H-pyrrolo[2,3-b]pyrazin-2-yl]-1H-indol-4-yl}-benzenesulfonamide]: 285 to 292 °C; for `CC(C)(C)C(=O)c1c[nH]c2ncc(-c3cc(NS(=O)(=O)c4ccc(F)cc4)c4cc[nH]c4c3)nc12` [Compound I-34, N-{6-[7-(2,2-Dimethyl-propionyl)-5H-pyrrolo[2,3-b]pyrazin-2-yl]-1H-indol-4-yl}-4-fluoro-benzenesulfonamide]: 295 to 297 °C.

`COc1ccc(S(=O)(=O)Nc2cc(-c3cnc4[nH]cc(C(=O)C(C)(C)C)c4n3)cc3[nH]ccc23)cc1` [Compound I-35, N-{6-[7-(2,2-Dimethyl-propionyl)-5H-pyrrolo[2,3-b]pyrazin-2-yl]-1H-indol-4-yl}-4-methoxy-benzenesulfonamide] showed a melting point of 231 to 233 °C. Regarding `CC(C)(C)C(=O)c1c[nH]c2ncc(-c3ccc4c(c3)NC(=O)CO4)nc12` [Compound I-9, 6-[7-(2,2-Dimethyl-propionyl)-5H-pyrrolo[2,3-b]pyrazin-2-yl]-4H-benzo[1,4]oxazin-3-one], the melting point was > 350 °C. `CC(C)(C)C(=O)c1c[nH]c2ncc(-c3ccccn3)nc12` [Example 8, 2,2-Dimethyl-1-(2-pyridin-2-yl-5H-pyrrolo[2,3-b]pyrazin-7-yl)-propan-1-one] returned a melting point of 276 to 278 °C. The same measure, in the same setting: the same measure for `CC(C)(C)C(=O)c1c[nH]c2ncc(-c3cc(NS(C)(=O)=O)c4cc[nH]c4c3)nc12` [Compound I-26, N-{6-[7-(2,2-Dimethyl-propionyl)-5H-pyrrolo[2,3-b]pyrazin-2-yl]-1H-indol-4-yl}-methanesulfonamide]: > 300 °C; for `CC(C)(C)C(=O)c1c[nH]c2ncc(-c3cc(N4CCCC4)ccn3)nc12` [Example 6, 2,2-Dimethyl-1-[2-(4-pyrrolidin-1-yl-pyridin-2-yl)-5H-pyrrolo[2,3-b]pyrazin-7-yl]-propan-1-one]: 260 to 263 °C.

Usually melting point stands for the temperature, or range, at which the solid turns liquid. By IC50 is commonly meant the concentration that gives 50% inhibition.
